Measured values from patent publication US20220313629A1, “TRANSIENT POTENTIAL MELASTATIN 8 (TRPM8) ANTAGONISTS AND RELATED METHODS” (MARSHALL UNIVERSITY RESEARCH CORPORATION, priority 2019, published 2022).
Read-outs that look alike come from different tables or passages of the source. Each block holds one compound with its values, some of them ahead of it.

What was measured:
Assay type in all cases: cell-based
TRPM8 = TRPM8 (Homo sapiens, UniProt Q7Z2W7); test: TRPM8 antagonist activity by Fura-2 Ca2+ imaging in HEK-293 cells stably expressing human TRPM8; details: for IC50: read-out: Functional Activity hTRPM8 potency IC50 ± SEM
Chain of TRPM8 (Q7Z2W7 whole entry): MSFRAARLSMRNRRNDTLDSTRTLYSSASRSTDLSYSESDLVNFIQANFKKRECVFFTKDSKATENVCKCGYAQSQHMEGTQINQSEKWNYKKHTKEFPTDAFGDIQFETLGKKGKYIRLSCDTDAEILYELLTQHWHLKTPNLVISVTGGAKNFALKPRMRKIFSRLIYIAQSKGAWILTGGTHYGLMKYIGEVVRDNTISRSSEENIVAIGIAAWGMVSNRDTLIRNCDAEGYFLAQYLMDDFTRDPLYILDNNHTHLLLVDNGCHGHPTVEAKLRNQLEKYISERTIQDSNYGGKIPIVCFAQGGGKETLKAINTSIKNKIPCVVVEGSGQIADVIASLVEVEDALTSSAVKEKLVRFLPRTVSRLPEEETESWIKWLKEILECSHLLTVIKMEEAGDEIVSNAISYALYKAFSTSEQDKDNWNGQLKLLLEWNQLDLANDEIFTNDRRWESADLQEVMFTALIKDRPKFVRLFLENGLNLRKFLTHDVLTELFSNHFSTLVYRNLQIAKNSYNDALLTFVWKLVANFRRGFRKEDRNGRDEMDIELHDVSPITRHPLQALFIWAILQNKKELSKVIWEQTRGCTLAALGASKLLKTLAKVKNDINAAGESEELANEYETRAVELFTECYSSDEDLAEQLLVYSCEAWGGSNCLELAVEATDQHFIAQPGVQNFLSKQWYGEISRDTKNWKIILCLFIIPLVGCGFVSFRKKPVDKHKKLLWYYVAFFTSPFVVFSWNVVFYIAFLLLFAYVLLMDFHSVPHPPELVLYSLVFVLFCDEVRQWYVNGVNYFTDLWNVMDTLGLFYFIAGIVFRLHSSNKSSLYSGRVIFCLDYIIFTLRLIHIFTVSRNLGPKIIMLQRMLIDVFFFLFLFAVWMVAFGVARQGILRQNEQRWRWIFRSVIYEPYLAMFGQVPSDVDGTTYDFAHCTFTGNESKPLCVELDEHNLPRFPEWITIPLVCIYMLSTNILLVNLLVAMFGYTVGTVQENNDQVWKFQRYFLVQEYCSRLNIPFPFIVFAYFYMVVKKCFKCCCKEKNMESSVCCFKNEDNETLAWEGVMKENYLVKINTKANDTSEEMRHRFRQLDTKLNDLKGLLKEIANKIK

human TRPA1 = human TRPA1 (Homo sapiens, UniProt O75762); test: TRPA1 agonist and antagonist Ca2+ flux assay (FLIPR, Fluo-8) in HEK293 cells stably expressing human TRPA1; details: for hTRPA1 % Activation (n = 3-5): normalized to Emax of AITC (300 μM)
Chain of human TRPA1 (O75762 whole entry): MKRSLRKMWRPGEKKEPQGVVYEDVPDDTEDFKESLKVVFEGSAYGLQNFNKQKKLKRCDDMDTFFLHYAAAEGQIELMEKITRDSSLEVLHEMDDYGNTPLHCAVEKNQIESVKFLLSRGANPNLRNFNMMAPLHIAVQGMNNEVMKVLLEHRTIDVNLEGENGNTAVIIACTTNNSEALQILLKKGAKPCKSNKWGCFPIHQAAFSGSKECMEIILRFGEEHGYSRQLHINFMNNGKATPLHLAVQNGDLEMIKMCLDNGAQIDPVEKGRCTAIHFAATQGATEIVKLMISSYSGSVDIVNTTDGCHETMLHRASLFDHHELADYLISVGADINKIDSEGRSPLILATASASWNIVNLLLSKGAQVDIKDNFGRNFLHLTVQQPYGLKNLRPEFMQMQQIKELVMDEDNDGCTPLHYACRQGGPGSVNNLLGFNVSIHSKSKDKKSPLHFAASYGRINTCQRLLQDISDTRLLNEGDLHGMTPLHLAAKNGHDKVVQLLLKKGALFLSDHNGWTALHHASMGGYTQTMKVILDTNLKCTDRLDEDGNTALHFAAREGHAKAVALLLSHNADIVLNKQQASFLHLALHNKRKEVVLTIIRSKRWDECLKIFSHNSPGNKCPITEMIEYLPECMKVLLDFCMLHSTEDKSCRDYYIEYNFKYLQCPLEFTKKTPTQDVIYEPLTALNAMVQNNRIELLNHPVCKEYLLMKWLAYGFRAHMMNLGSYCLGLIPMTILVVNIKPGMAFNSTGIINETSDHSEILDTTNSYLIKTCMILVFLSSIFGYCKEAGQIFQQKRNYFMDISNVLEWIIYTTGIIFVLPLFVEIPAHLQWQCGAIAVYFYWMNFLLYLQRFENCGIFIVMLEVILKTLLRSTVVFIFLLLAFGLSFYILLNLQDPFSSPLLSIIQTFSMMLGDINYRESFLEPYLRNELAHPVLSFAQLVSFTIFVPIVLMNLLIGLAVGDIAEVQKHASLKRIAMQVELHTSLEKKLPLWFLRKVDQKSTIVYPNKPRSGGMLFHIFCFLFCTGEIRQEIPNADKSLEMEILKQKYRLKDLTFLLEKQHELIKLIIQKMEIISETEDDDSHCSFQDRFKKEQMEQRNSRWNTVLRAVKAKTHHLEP

human TRPV1 = human TRPV1 (Homo sapiens, UniProt Q8NER1); test: TRPV1 agonist and antagonist Ca2+ flux assay (FLIPR, Fluo-8) in HEK293 cells stably expressing human TRPV1; details: for hTRPV1 % Activation (n = 3): normalized to Emax of capsaicin (3 μM)
Chain of human TRPV1 (Q8NER1 whole entry): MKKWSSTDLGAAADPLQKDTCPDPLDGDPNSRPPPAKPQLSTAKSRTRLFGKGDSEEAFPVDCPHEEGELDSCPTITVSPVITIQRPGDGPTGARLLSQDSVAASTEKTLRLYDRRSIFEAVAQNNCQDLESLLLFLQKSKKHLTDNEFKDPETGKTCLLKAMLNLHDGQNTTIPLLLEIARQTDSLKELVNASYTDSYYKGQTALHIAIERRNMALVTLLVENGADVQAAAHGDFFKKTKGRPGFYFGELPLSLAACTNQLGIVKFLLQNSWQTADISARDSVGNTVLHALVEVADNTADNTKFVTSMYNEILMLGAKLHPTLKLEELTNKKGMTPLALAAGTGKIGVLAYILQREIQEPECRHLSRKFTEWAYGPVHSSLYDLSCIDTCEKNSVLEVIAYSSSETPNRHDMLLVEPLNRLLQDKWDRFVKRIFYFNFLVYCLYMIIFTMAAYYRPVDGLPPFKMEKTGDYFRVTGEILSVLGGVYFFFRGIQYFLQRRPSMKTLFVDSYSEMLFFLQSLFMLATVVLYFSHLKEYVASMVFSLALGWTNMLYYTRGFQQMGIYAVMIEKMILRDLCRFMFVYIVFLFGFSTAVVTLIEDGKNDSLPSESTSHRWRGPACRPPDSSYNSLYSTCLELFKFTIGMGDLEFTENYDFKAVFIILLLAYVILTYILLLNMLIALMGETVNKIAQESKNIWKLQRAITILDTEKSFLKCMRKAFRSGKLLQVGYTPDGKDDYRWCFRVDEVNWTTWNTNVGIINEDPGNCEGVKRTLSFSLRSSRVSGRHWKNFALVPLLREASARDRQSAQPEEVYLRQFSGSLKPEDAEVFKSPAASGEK

[1] = inhibition of icilin (500 nM)-evoked Ca2+ entry, HEK-293 cells stably expressing hTRPM8, mean ± SEM, three independent experiments
[2] = HEK293, read-out: hTRPA1 % Inhibition (n = 3)
[3] = at concentrations 13- to 25-fold higher than hTRPM8 IC50
[4] = HEK293, read-out: hTRPV1 % Inhibition (n = 3)
[5] = HEK293, read-out: % Activation Mean ± SEM (n = 5), TRPV1 antagonist data (Percentage Inhibition Normalized to EC80 Control)

Structure (SMILES): O=C(NC1CCC2CCCCC2C1)c1ccc(-c2ccccc2)cc1 (racemic) [Compound 12, N-((2SR,9RS,10SR)-decahydronaphthalen-2-yl)-[1,1′-biphenyl]-4-carboxamide]
inhibition at 0.003 µM (human TRPA1; [2]): -0.3 ± 3%
inhibition at 0.03 µM (human TRPA1; [2]): 5 ± 9%
effect on hTRPA1-mediated responses (intrinsic and antagonist activity) (human TRPA1; [3]): do not affect
hTRPA1 % Activation (n = 3-5) (human TRPA1; tested at 3 nM): −2.3 ± 1.0%
hTRPA1 % Activation (n = 3-5) (human TRPA1; tested at 30 nM): −2.1 ± 0.5%
inhibition at 0.003 µM (human TRPV1; [4]): -12 ± 3%
inhibition at 0.03 µM (human TRPV1; [4]): 1 ± 2%
effect on hTRPV1-mediated responses (intrinsic and antagonist activity) (human TRPV1; [3]): do not affect
hTRPV1 % Activation (n = 3) (human TRPV1; tested at 3 nM): 2 ± 1%
hTRPV1 % Activation (n = 3) (human TRPV1; tested at 30 nM): 3 ± 1%

Structure (SMILES): C=CCN=C=S [AITC, Allyl isothiocyanate, reference compound]
% Activation Mean ± SEM (n = 5), TRPA1 agonist data (human TRPA1; 100 nM, normalized to Emax of AITC): −0.8 ± 0.4%
% Activation Mean ± SEM (n = 5), TRPA1 agonist data (human TRPA1; 300 nM, normalized to Emax of AITC): −0.5 ± 0.2%
% Activation Mean ± SEM (n = 5), TRPA1 agonist data (human TRPA1; 1,000 nM, normalized to Emax of AITC): −0.5 ± 0.2%
% Activation Mean ± SEM (n = 5), TRPA1 agonist data (human TRPA1; 3,000 nM, normalized to Emax of AITC): −1.2 ± 0.2%
% Activation Mean ± SEM (n = 5), TRPA1 agonist data (human TRPA1; 10,000 nM, normalized to Emax of AITC): 68.8 ± 2.9%
% Activation Mean ± SEM (n = 5), TRPA1 agonist data (human TRPA1; 30,000 nM, normalized to Emax of AITC): 78.5 ± 1.0%
% Activation Mean ± SEM (n = 5), TRPA1 agonist data (human TRPA1; 100,000 nM, normalized to Emax of AITC): 94.2 ± 2.4%
% Activation Mean ± SEM, TRPA1 agonist data (human TRPA1; 300,000 nM, normalized to Emax of AITC, n = 10): 100.0 ± 1.3 %

Structure (SMILES): COc1cc(CNC(=O)CCCC/C=C/C(C)C)ccc1O [Capsaicin, reference compound]
% Activation Mean ± SEM (n = 5), TRPV1 agonist data (human TRPV1; 1 nM, normalized to Emax of capsaicin): −0.2 ± 1.0%
% Activation Mean ± SEM (n = 5), TRPV1 agonist data (human TRPV1; 3 nM, normalized to Emax of capsaicin): −1.7 ± 0.7%
% Activation Mean ± SEM (n = 5), TRPV1 agonist data (human TRPV1; 10 nM, normalized to Emax of capsaicin): 15.2 ± 0.6%
% Activation Mean ± SEM (n = 5), TRPV1 agonist data (human TRPV1; 30 nM, normalized to Emax of capsaicin): 72.4 ± 2.3%
% Activation Mean ± SEM (n = 5), TRPV1 agonist data (human TRPV1; 100 nM, normalized to Emax of capsaicin): 81.4 ± 3.3%
% Activation Mean ± SEM (n = 5), TRPV1 agonist data (human TRPV1; 300 nM, normalized to Emax of capsaicin): 91.8 ± 3.7%
% Activation Mean ± SEM (n = 5), TRPV1 agonist data (human TRPV1; 1,000 nM, normalized to Emax of capsaicin): 101.6 ± 2.0%
% Activation Mean ± SEM, TRPV1 agonist data (human TRPV1; 3,000 nM, normalized to Emax of capsaicin, n = 10): 100.0 ± 1.8 %
% Activation, EC80 agonist control of the TRPV1 antagonist assay (human TRPV1; Capsaicin EC80, 100 nM, normalization control): 100%

Structure (SMILES): Oc1cc2c(cc1O)CN(C(=S)NCCc1ccc(Cl)cc1)CCC2 [Capsazepine, reference compound]
inhibition at 0.003 µM (human TRPV1; [5]): 1.6 ± 4.2%
inhibition at 0.01 µM (human TRPV1; [5]): 0.1 ± 1.3%
inhibition at 0.03 µM (human TRPV1; [5]): 1.1 ± 1.7%
inhibition at 0.1 µM (human TRPV1; [5]): 7.1 ± 2.2%
inhibition at 0.3 µM (human TRPV1; [5]): 23.4 ± 2.5%
inhibition at 1 µM (human TRPV1; [5]): 94.2 ± 1.1%
inhibition at 3 µM (human TRPV1; [5]): 100.6 ± 0.3%
inhibition at 10 µM (human TRPV1; [5]): 101.2 ± 0.5%
IC50 (human TRPV1; capsaicin 100 nM, read-out: IC50, blockade of capsaicin-activated hTRPV1 responses): 0.451 ± 0.048 µM

Structure (SMILES): O=C(NC1CCCc2ccccc21)c1ccc(-c2ccccc2)cc1 (stereo not drawn) [Compound 9, N-(1,2,3,4-tetrahydronaphthalen-1-yl)-[1,1′-biphenyl]-4-carboxamide]
loss of potency vs. Compound 8 (TRPM8; icilin Ca2+ assay): 3 fold
IC50 (TRPM8): 55 ± 1 µM

Results, then the compound that gave them:

increase of hTRPM8 activity relative to Compound 1 (TRPM8; icilin Ca2+ assay): 30 fold
IC50 (TRPM8; [1]): 0.468 ± 0.001 µM
Structure (SMILES): CC1CCC(C(C)C)C(NC(=O)c2ccc(-c3ccccc3)cc2)C1 (mixture of isomers) [Compound 2, N-(2-isopropyl-5-methylcyclohexyl)-[1,1′-biphenyl]-4-carboxamide]

IC50 (TRPM8; [1]): 21 ± 1 µM
Structure (SMILES): O=C(NC1CCCC2CCCCC21)c1ccc(-c2ccccc2)cc1 (mixture of isomers) [Compound 8, N-(decahydronaphthalen-1-yl)-[1,1′-biphenyl]-4-carboxamide]

IC50 (TRPM8): 7.1 ± 0.9 µM
Structure (SMILES): O=C(NC1CC2CCC1C2)c1ccc(-c2ccccc2)cc1 (single isomer, unassigned) [Compound 4, N-(bicyclo[2.2.1]heptan-2-yl)-[1,1′-biphenyl]-4-carboxamide]

IC50 (TRPM8): 16 ± 1 µM
Structure (SMILES): CC(C)[C@@H]1CC[C@@H](C)C[C@H]1NC(=O)c1ccc(-c2ccccc2)cc1 [Compound 1, reference compound]

IC50 (TRPM8; [1]): 49 ± 1 µM
Structure (SMILES): O=C(NC1CCCCC1)c1ccc(-c2ccccc2)cc1 [Compound 3, N-cyclohexyl-[1,1′-biphenyl]-4-carboxamide]

IC50 (TRPM8; [1]): 0.692 ± 0.001 µM
Structure (SMILES): O=C(NC1CC2CCC(C2)C1)c1ccc(-c2ccccc2)cc1 (stereo not drawn) [Compound 6, N-(bicyclo[3.2.1]octan-3-yl)-[1,1′-biphenyl]-4-carboxamide]
